From patent US20030073117A1, “Novel protein and gene encoding the protein” (Daiichi Pharmaceutical Co., Ltd., priority 2000, published 2003)

Legend:
SAC1 [1] = target: T1, SAC1 (Mus musculus, UniProt Q9EPK8); assay: Fluorescence measurement (fura-2) of SAC1 expression cells under touch stress; assay type: cell-based; conditions: SAC1 expression CHO cells (GFP positive), touched by glass pipette, added Gd^3+; no added Gd^3+ gave 12.8 ± 1.4, control cells 4.5 ± 3.8
T1 construct: the region containing the full length was amplified by PCR using primer set (A13st1 and mA13end1); expressed in transfected cells; host or cells: CHO cells, transient co-transfection of SAC1 in pCMV-SPORT with pEGFP-N1 as a separate marker plasmid
T1 sequence (Q9EPK8 whole entry): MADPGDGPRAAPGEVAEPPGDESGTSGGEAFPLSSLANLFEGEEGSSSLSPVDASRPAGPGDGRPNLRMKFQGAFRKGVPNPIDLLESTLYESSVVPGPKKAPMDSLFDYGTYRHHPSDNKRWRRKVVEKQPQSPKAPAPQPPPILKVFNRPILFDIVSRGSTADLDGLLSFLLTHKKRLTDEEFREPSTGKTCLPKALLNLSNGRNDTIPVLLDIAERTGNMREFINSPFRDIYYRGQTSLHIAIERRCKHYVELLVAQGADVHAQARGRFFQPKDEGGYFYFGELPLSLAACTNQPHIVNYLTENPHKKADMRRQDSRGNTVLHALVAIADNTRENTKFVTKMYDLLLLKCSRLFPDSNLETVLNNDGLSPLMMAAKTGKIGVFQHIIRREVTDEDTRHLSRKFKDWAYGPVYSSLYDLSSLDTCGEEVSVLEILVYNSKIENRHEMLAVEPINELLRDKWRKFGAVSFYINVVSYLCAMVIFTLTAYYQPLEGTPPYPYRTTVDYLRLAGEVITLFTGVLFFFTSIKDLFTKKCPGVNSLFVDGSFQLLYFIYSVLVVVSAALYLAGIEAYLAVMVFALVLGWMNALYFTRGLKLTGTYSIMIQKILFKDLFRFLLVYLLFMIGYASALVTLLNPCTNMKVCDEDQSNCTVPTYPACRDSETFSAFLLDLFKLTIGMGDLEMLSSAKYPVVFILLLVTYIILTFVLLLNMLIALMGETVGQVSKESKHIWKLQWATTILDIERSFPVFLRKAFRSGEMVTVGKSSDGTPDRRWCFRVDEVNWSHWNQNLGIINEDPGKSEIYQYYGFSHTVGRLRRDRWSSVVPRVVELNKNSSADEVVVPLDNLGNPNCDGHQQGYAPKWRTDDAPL
Method: (§1) The plasmid (pEGFP-N1; Clonetech Co.) expressing a green fluorescent protein was used as a marker for transfection. For the transient expression of protein, CHO cells were cultured in a HamF-12 culture medium (Gibco-BRL Co.) supplemented with 10% fetal bovine serum, 100 U/ml penicillin, and 100 μg/ml streptomycin. On the day before transformation, CHO cells (10^5 cells) were seeded to a 35 mm dish in which a cover slip coated with rat tail collagen was placed. On the next day, SAC1 plasmid (1 μg) in PCMV-SPORT (Gibco-BRL Co.) and pEGFP-N1 (1 μg) were added per one transfection to a mixture of serum-free medium (97 μl) and FuGENE6 (Roche, 3 μl) which had been incubated for 5 minutes at room temperature. […] The electrophysiological test was started after 24 hours and the fluorescence measurement was carried out 48 hours after the transfection.
For 2-3 hours prior to start of the test, the transformed cells were incubated with 10 μM fura-2AM (Dojin Co.) dissolved in a serum-free culture medium. GFP fluorescence at 480 nm and fura-2 fluorescence at 360/380 nm were visualized by a manual exchange of dichroic Olympus system mirrors (Merlin Co.). Images for the fluorescence at 480 nm and fluorescence at 360/380 nm were obtained every two seconds. The fluorescence intensity of the objective area was calculated for analysis. […]

SAC1 [2] = target: T1, SAC1; assay: Single channel analysis (patch clamp) of SAC1 expression cells under negative pressure; assay type: cell-based
Method: as §1, with “placed.” for “placed. On the next day, SAC1 plasmid (1 μg) in PCMV-SPORT (Gibco-BRL Co.) and pEGFP-N1 (1 μg) were added per one transfection to a mixture of serum-free medium (97 μl) and FuGENE6 (Roche, 3 μl) which had been incubated for 5 minutes at room temperature.”
Patch clamp recordings were carried out according to the method described in a previous paper (Suzuki, M., Sato, J., Kutsuwada, K., Ooki, G. and Imai, M. (1999) J. Biol. Chem. 274, 6330-5). GFP positive cells were visualized by a fluorescence measurement with an emission of 490 nm (CAM 2000 system; Jusco Co., Ltd.). […] In single channel analysis, the current was recorded with an EPC-7 patch clamp amplifier (List-Electronic Co., Ltd.) and stored on a DAT recorder (DAT-200; Sony Corp.) at 10 KHz. […] The data were analyzed using Igor ver. […] To analyze the open probability in the presence of GdCl3, single channel amplitude was set for those without reagent and the mean open probability (Po) was determined by the records during 10 seconds. […]

change of the fura-2 fluorescence ratio (360 nm/380 nm) on mechanical stimulus (SAC1 [1]): 4.8 ± 1.4 (10)
response (mean open probability Po) to negative pressure (SAC1 [2]; 0.5 μM GdCl3 added to the pipette, cell-attached, FIG. 3C): not affected
effect on single channel activated by negative pressure (SAC1 [2]; transformed cells that express SAC1): blocked
SMILES: [Cl][Gd]([Cl])[Cl] [Gd^3+, GdCl3]
